Consider 28 compounds from patent US9326986B2, “Quinazolinone, quinolone and related analogs as sirtuin modulators” (GLAXOSMITHKLINE LLC, priority 2008, dated 2016).

The assay addresses T1, SIRT1 (Homo sapiens, UniProt Q96EB6).
T1 sequence (Q96EB6 1-747): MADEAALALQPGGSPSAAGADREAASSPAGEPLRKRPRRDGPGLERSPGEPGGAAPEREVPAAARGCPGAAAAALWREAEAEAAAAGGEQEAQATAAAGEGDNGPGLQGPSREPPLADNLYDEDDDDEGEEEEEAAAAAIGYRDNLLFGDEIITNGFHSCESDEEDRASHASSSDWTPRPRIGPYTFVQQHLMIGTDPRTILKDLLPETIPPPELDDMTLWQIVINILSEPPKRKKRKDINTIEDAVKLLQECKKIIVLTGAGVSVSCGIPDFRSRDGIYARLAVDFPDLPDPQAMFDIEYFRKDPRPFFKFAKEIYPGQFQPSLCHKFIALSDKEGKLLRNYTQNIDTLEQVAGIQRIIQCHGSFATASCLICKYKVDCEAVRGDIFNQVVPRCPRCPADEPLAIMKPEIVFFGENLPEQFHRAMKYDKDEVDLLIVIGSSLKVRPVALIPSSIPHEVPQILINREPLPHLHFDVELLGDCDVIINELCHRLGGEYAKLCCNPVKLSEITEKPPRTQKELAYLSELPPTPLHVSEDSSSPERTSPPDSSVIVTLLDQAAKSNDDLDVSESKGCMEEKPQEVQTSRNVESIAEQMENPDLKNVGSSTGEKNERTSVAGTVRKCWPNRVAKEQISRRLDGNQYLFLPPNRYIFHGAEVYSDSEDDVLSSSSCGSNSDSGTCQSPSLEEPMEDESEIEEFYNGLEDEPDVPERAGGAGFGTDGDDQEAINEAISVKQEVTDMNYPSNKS
Nature of the assay: Mass spectrometry based assay to identify modulators of SIRT1 activity (deacetylation of p53-based acetylated peptide). The class given is biochemical. As to conditions: 10 nM SIRT1, 0.5 μM peptide substrate, 120 μM βNAD+, 25 minutes at 25° C.; for EC1.5 μM: SIRT1 activation. The text has this:
A mass spectrometry based assay was used to identify modulators of SIRT1 activity. The mass spectrometry based assay utilizes a peptide having 20 amino acid residues as follows: Ac-EE-K(biotin)-GQSTSSHSK(Ac)NleSTEG-K(5TMR)-EE-NH2 (SEQ ID NO: 1) wherein K(Ac) is an acetylated lysine residue and Nle is a norleucine. The peptide is labeled with the fluorophore 5TMR (excitation 540 nm/emission 580 nm) at the C-terminus. The sequence of the peptide substrate is based on p53 with several modifications. In addition, the methionine residue naturally present in the sequence was replaced with the norleucine because the methionine may be susceptible to oxidation during synthesis and purification.
The mass spectrometry assay is conducted as follows: 0.5 μM peptide substrate and 120 μM βNAD^+ is incubated with 10 nM SIRT1 for 25 minutes at 25° C. in a reaction buffer (50 mM Tris-acetate pH 8, 137 mM NaCl, 2.7 mM KCl, 1 mM MgCl2, 5 mM DTT, 0.05% BSA). Test compounds may be added to the reaction as described above. […] After the 25 minute incubation with SIRT1, 10 μL of 10% formic acid is added to stop the reaction. Reactions are sealed and frozen for later mass spec analysis. Determination of the mass of the substrate peptide allows for precise determination of the degree of acetylation (i.e. starting material) as compared to deacetylated peptide (product).
A control for inhibition of sirtuin activity is conducted by adding 1 μL of 500 mM nicotinamide as a negative control at the start of the reaction (e.g., permits determination of maximum sirtuin inhibition). A control for activation of sirtuin activity is conducted using 10 nM of sirtuin protein, with 1 μL of DMSO in place of compound, to determine the amount of deacetylation of the substrate at a given timepoint within the linear range of the assay. This timepoint is the same as that used for test compounds and, within the linear range, the endpoint represents a change in velocity.
For the above assay, SIRT1 protein was expressed and purified as follows. […] The protein was expressed by induction with 1 mM IPTG as an N-terminal His-tag fusion protein at 18° C. overnight and harvested at 30,000×g. Cells were lysed with lysozyme in lysis buffer (50 mM Tris-HCl, 2 mM Tris[2-carboxyethyl]phosphine (TCEP), 10 μM ZnCl2, 200 mM NaCl) and further treated with sonication for 10 min for complete lysis. The protein was purified over a Ni-NTA column (Amersham) and fractions containing pure protein were pooled, concentrated and run over a sizing column (Sephadex S200 26/60 global). The peak containing soluble protein was collected and run on an Ion-exchange column (MonoQ). Gradient elution (200 mM-500 mM NaCl) yielded pure protein. This protein was concentrated and dialyzed against dialysis buffer (20 mM Tris-HCl, 2 mM TCEP) overnight. The protein was aliquoted and frozen at −80° C. until further use.
Sirtuin modulating compounds that activated SIRT1 were identified using the assay described above and are shown below in Tables 1 and 2. The EC1.5 values for the activating compounds are represented by A (EC1.5<1.0 μM), B (EC1.5 1-25 μM), C (EC1.5>25 μM). The percent maximum fold activation is represented by A (Fold activation>200%) or B (Fold Activation<200%).

On to `O=C(Nc1cccc2c(=O)[nH]c(-c3ccccc3C(F)(F)F)nc12)c1cnccn1` [Compound 317], for which the “% Fold Act. (percent maximum fold activation)” value is given as “A (Fold activation>200%)” and the “EC1.5 μM” value is recorded as “A (EC1.5<1.0 μM)”.
On to `O=C(Nc1cccc2c(=O)cc(-c3cccc(C(F)(F)F)c3)[nH]c12)c1cnccn1` [Compound 409, N-(4-oxo-2-(3-(trifluoromethyl)phenyl)-1,4-dihydroquinolin-8-yl)pyrazine-2-carboxamide], for which the “% Fold Act. (percent maximum fold activation)” value was “A (Fold activation>200%)” and the “EC1.5 μM” value was “A (EC1.5<1.0 μM)”.
As to `Cn1c(-c2cccc(OC(F)(F)F)c2)nc2c(NC(=O)c3cnccn3)cccc2c1=O` [Compound 204], the “% Fold Act. (percent maximum fold activation)” value is “A (Fold activation>200%)” and the “EC1.5 μM” value is on record as “A (EC1.5<1.0 μM)”.
Turning to `O=C(NC1CN2CCC1CC2)c1cccc2c(=O)cc(-c3cccc(C(F)(F)F)c3)[nH]c12` (centres unmarked) [Compound 414], the “% Fold Act. (percent maximum fold activation)” value was “A (Fold activation>200%)” and the “EC1.5 μM” value is recorded as “B (EC1.5 1-25 μM)”.
Take `Cn1c(C2CCC2)nc2c(C(=O)Nc3ccccn3)cccc2c1=O` [Compound 224]: the “% Fold Act. (percent maximum fold activation)” value was “B (Fold Activation<200%)” and the “EC1.5 μM” value was “C (EC1.5>25 μM)”.
Take `O=C(Nc1ccccn1)c1cccc2c(=O)[nH]c(-c3ccccc3OC(F)(F)F)nc12` [Compound 320]: the “% Fold Act. (percent maximum fold activation)” value was “A (Fold activation>200%)” and the “EC1.5 μM” value was “A (EC1.5<1.0 μM)”.
Take `O=C(Nc1nccs1)c1cncc2c(=O)cc(-c3cccc(C(F)(F)F)c3)[nH]c12` [Compound 449, 4-oxo-N-(thiazol-2-yl)-2-(3-(trifluoromethyl)phenyl)-1,4-dihydro-1,6-naphthyridine-8-carboxamide]: the “% Fold Act. (percent maximum fold activation)” value is “A (Fold activation>200%)” and the “EC1.5 μM” value is reported as “A (EC1.5<1.0 μM)”.
On to `O=C(Nc1cccc2c(=O)cc(-c3cccc(C(F)(F)F)c3)[nH]c12)c1cccnc1` [Compound 419], for which the “% Fold Act. (percent maximum fold activation)” value was “A (Fold activation>200%)” and the “EC1.5 μM” value is listed as “A (EC1.5<1.0 μM)”.
For `Cn1c(-c2cccc(C(F)(F)F)c2)nc2c(C(=O)Nc3cncc(OCC(O)CO)n3)cccc2c1=O` (centres unmarked) [Compound 354], the “% Fold Act. (percent maximum fold activation)” value is listed as “A (Fold activation>200%)” and the “EC1.5 μM” value is “A (EC1.5<1.0 μM)”.
In the case of `O=C(NC1CCOC1=O)c1cccc2c(=O)cc(-c3cccc(C(F)(F)F)c3)[nH]c12` (centres unmarked) [Compound 413], the “% Fold Act. (percent maximum fold activation)” value is recorded as “B (Fold Activation<200%)” and the “EC1.5 μM” value is on record as “B (EC1.5 1-25 μM)”.
With `Cn1c(-c2cccc(C(F)(F)F)c2)nc2c(C(=O)Nc3nc(CN4CCNCC4)cs3)cccc2c1=O` [Compound 366], the “% Fold Act. (percent maximum fold activation)” value was “A (Fold activation>200%)” and the “EC1.5 μM” value is “A (EC1.5<1.0 μM)”.
With `Cn1c(-c2ccccc2C(F)F)nc2c(C(=O)Nc3ccccn3)cccc2c1=O` [Compound 322], the “% Fold Act. (percent maximum fold activation)” value is given as “A (Fold activation>200%)” and the “EC1.5 μM” value was “B (EC1.5 1-25 μM)”.
With `Cn1cncc1C(=O)Nc1cccc2c(=O)n(C)c(-c3cccc(C(F)(F)F)c3)nc12` [Compound 236], the “% Fold Act. (percent maximum fold activation)” value is recorded as “A (Fold activation>200%)” and the “EC1.5 μM” value is “B (EC1.5 1-25 μM)”.
Consider `Cn1nccc1C(=O)Nc1cccc2c(=O)n(C)c(-c3cccc(C(F)(F)F)c3)nc12` [Compound 248], for which the “% Fold Act. (percent maximum fold activation)” value was “A (Fold activation>200%)” and the “EC1.5 μM” value was “A (EC1.5<1.0 μM)”.
In the case of `Cn1c(-c2cnccn2)nc2c(C(=O)Nc3ccccn3)cccc2c1=O` [Compound 258], the “% Fold Act. (percent maximum fold activation)” value is recorded as “B (Fold Activation<200%)” and the “EC1.5 μM” value is recorded as “C (EC1.5>25 μM)”.
Consider `Cn1c(-c2cccc(C(F)(F)F)c2)nc2c(NC(=O)c3cnccn3)cccc2c1=O` [Compound 202], for which the “% Fold Act. (percent maximum fold activation)” value is “A (Fold activation>200%)” and the “EC1.5 μM” value is given as “A (EC1.5<1.0 μM)”.
In the case of `Cn1c(-c2cccc(C(F)(F)F)c2)nc2c(NC(=O)c3cccc(CN4CCOCC4)n3)cccc2c1=O` [Compound 332], the “% Fold Act. (percent maximum fold activation)” value was “A (Fold activation>200%)” and the “EC1.5 μM” value is given as “A (EC1.5<1.0 μM)”.
With `O=C(Nc1nccs1)c1cccc2c(=O)cc(-c3ccccc3C(F)F)[nH]c12` [Compound 435], the “% Fold Act. (percent maximum fold activation)” value is reported as “A (Fold activation>200%)” and the “EC1.5 μM” value is on record as “B (EC1.5 1-25 μM)”.
The like results for `Cn1cc(-c2nc3c(NC(=O)c4cnccn4)cccc3c(=O)n2C)cn1` [Compound 291] were, in that order, “B (Fold Activation<200%)” and “C (EC1.5>25 μM)”.
As for `Cn1c(-c2cscn2)nc2c(NC(=O)c3cnccn3)cccc2c1=O` [Compound 283], the “% Fold Act. (percent maximum fold activation)” value is “B (Fold Activation<200%)” and the “EC1.5 μM” value was “C (EC1.5>25 μM)”.
Consider `Cn1c(-c2cccc(C(F)(F)F)c2)nc2c(C(=O)Nc3nnc(C(C)(C)C)s3)cccc2c1=O` [Compound 297], for which the “% Fold Act. (percent maximum fold activation)” value is “A (Fold activation>200%)” and the “EC1.5 μM” value was “A (EC1.5<1.0 μM)”.
Regarding `CCc1nnc(NC(=O)c2cccc3c(=O)n(C)c(-c4cccc(C(F)(F)F)c4)nc23)s1` [Compound 294], the “% Fold Act. (percent maximum fold activation)” value is given as “A (Fold activation>200%)” and the “EC1.5 μM” value is “A (EC1.5<1.0 μM)”.
As to `Cn1c(-c2cccc(C(F)(F)F)c2)nc2c(NC(=O)c3cncs3)cccc2c1=O` [Compound 229], the “% Fold Act. (percent maximum fold activation)” value is “B (Fold Activation<200%)” and the “EC1.5 μM” value is “B (EC1.5 1-25 μM)”.
For the compound `Cn1c(-c2cccc(C(F)(F)F)c2)nc2c(NC(=O)c3cncnc3)cccc2c1=O` [Compound 241], the “% Fold Act. (percent maximum fold activation)” value was “B (Fold Activation<200%)” and the “EC1.5 μM” value is “C (EC1.5>25 μM)”.
As for `Cn1c(-c2cccc(C(F)(F)F)c2)nc2c(NC(=O)c3ccncn3)cccc2c1=O` [Compound 245], the “% Fold Act. (percent maximum fold activation)” value is on record as “A (Fold activation>200%)” and the “EC1.5 μM” value is “A (EC1.5<1.0 μM)”.
For `Cn1c(-c2cccc(C(F)(F)F)c2)nc2c(C(=O)Nc3cccc(OCC(O)CO)c3)cccc2c1=O` (centres unmarked) [Compound 360], the “% Fold Act. (percent maximum fold activation)” value was “A (Fold activation>200%)” and the “EC1.5 μM” value is on record as “A (EC1.5<1.0 μM)”.
Take `CCc1nnc(NC(=O)c2cccc3c(=O)cc(-c4cccc(C(F)(F)F)c4)[nH]c23)s1` [Compound 400]: the “% Fold Act. (percent maximum fold activation)” value is on record as “A (Fold activation>200%)” and the “EC1.5 μM” value is reported as “A (EC1.5<1.0 μM)”.
With `Cn1ccc(C(=O)Nc2cccc3c(=O)n(C)c(-c4cccc(C(F)(F)F)c4)nc23)n1` [Compound 247], the “% Fold Act. (percent maximum fold activation)” value is on record as “B (Fold Activation<200%)” and the “EC1.5 μM” value is given as “B (EC1.5 1-25 μM)”.
